Laboratory results taken from patent US4275076A, “Substituted naphthoic acids” (American Cyanamid Company, priority 1980, dated 1981).
Each block holds one compound with its values, some of them ahead of it.

Tests used:
collagenase [1] = conditions: in words; cited from earlier work
[2] = biological target: T1, human skin fibroblast collagenase (Homo sapiens, UniProt P03956); test: Collagenase Assay, Test Code 006 (degradation of 14C-labeled native collagen fibrils); assay type: biochemical; conditions: 30 μg./ml., 37° C., 16 hours; based on the 0% value for the enzyme control
T1 construct: endogenous in cells; host or cells: human skin fibroblasts
T1 sequence (P03956 100-469): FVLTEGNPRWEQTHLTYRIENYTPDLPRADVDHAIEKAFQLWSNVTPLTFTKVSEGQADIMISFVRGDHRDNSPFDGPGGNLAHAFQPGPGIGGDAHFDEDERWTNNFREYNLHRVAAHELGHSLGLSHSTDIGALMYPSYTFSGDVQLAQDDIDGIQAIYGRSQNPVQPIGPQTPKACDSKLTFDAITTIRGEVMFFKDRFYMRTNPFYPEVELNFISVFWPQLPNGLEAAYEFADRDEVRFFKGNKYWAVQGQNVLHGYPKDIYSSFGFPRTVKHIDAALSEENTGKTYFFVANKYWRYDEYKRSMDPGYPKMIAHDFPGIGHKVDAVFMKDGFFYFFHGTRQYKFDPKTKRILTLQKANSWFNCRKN
Experimental: An active inhibitor would inhibit the degradation of the collagen fibril; (iii) Leukocyte Neutral Proteases Inhibitor Assay--This test measures the ability of neutral proteases derived from human leukocytes to degrade radiolabeled proteoglycans entrapped in polyacrylamide beads.
(i) Collagenase Assay--Test Code 006
Collagenase assays were performed by a modification of the method of Harper, et al., Biochem., 10, 3035 (1971). In a typical assay (total volume of 0.45 ml.), 100 μl. of the activated enzyme was added to the ^14 C-labeled collagen fibrils (250 μl.) followed by 100 μl. of 50 mM cacodylate, pH 7.4, containing 5 mM calcium chloride. After incubation at 37° C. for 16 hours, the tubes were centrifuged in a Beckman microfuge for five minutes at full speed. An aliquot (200 μl.) of the supernatant, representing collagenase digestion products of the fibril, was assayed for radioactivity. The effect of the test compound on collagen degradation by collagenase was examined as follows:
The test compound (in distilled water) was added at a test concentration of 30 μg./ml. to the assay tubes containing active collagenase (total volume 450 μl.) and after 16 hours the amount of radioactivity in the supernatant was determined. Appropriate blanks and trypsin controls were run in parallel.
The activities are expressed as % inhibition (lowering) of collagenase activity, i.e. based on the 0% value for the enzyme control.

corneal ulceration = conditions: human; cited from earlier work
corneal ulcerations = conditions: directly applied to the eye, alkali burned rabbit; cited from earlier work
collagenase [3] = conditions: in words; collagenase or a proteinase contaminant in the collagenase preparation; cited from earlier work
[4] = compared with cysteine; cited from earlier work

Compound: α2 -macroglobulin: Naturally occurring collagenase inhibitors include the serum components α2 -macroglobulin and β1-anticollagenase
collagenase inhibition (collagenase [1]): collagenase inhibitors

Compound: O[C@@H](CS)[C@@H](O)CS [dithiothretol]
collagenase inhibition (collagenase [1]): collagenase inhibitors

inhibition at 30 µg/mL [2]: 92%
Compound: O=C(Nc1cccc(C(=O)Nc2ccc3cc(C(=O)O)cc(O)c3c2)c1)Nc1cccc(C(=O)Nc2ccc3cc(C(=O)O)cc(O)c3c2)c1 [6,6'-[Ureylenebis(m-phenylenecarbonylimino)]bis[4-hydroxy-2-naphthoic acid]]

inhibition at 30 µg/mL [2]: 57%
Compound: CCOC(=O)c1cc(O)c2cc(NC(=O)c3cccc(NC(=O)Nc4cccc(C(=O)Nc5ccc6cc(C(=O)OCC)cc(O)c6c5)c4)c3)ccc2c1 [6,6'-[Ureylenebis(m-phenylenecarbonylimino)]bis[4-hydroxy-2-naphthoic acid] diethyl ester]

Compound: N[C@@H](CS)C(=O)O [cysteine]
collagenase inhibition (collagenase [1]): collagenase inhibitors | treatment of acute and chronic corneal ulceration (corneal ulceration): effective

Compound: O=C([O-])CN(CCN(CC(=O)[O-])CC(=O)[O-])CC(=O)[O-].[Ca+2].[Ca+2] [Calcium ethylenediaminetetraacetate]
frequency of ulceration (corneal ulcerations): reduce the frequency of ulceration

Compound: c1cnc2c(c1)ccc1cccnc12 [1,10-phenanthroline]
collagenase inhibition (collagenase [1]): collagenase inhibitors

Compound: Cc1cc(-c2ccc(/N=N/c3c(S(=O)(=O)O)cc4cc(S(=O)(=O)O)cc(N)c4c3O)c(C)c2)ccc1/N=N/c1c(S(=O)(=O)O)cc2cc(S(=O)(=O)O)cc(N)c2c1O [trypan blue]
inhibiting the activity of collagenase (collagenase [3]): inhibiting the activity of collagenase

Compound: sodium auriothiomalate
collagenase inhibition (collagenase [1]): collagenase inhibitors

inhibition at 30 µg/mL [2]: 7%
Compound: CCOC(=O)c1cc(OC(C)=O)c2cc(NC(=O)c3cccc(NC(=O)Nc4cccc(C(=O)Nc5ccc6cc(C(=O)OCC)cc(OC(C)=O)c6c5)c4)c3)ccc2c1 [6,6'-[Ureylenebis(m-phenylenecarbonylimino)]bis[4-hydroxy-2-naphthoic acid]diethyl ester diacetate]

Compound: Cc1ccc(C(=O)Nc2ccc(S(=O)(=O)O)c3cc(S(=O)(=O)O)cc(S(=O)(=O)O)c23)cc1NC(=O)c1cccc(NC(=O)Nc2cccc(C(=O)Nc3cc(C(=O)Nc4ccc(S(=O)(=O)O)c5cc(S(=O)(=O)O)cc(S(=O)(=O)O)c45)ccc3C)c2)c1 [Suramin]
inhibiting the activity of collagenase (collagenase [3]): not inhibiting the action of collagenase

Compound: CC(=O)N[C@@H](CS)C(=O)O [acetylcysteine]
frequency of ulceration (corneal ulcerations): reduce the frequency of ulceration | treatment of acute and chronic corneal ulceration (corneal ulceration): effective | stability [4]: greater stability
